Data: patent US11484529B2, “Desmethylanethole trithione derivatives for the treatment of diseases linked to mitochondrial reactive oxygen species (ROS) production” (OP2 Drugs, priority 2017, dated 2022)

Legend:
H460 carcinoma cells = experiment: Transwell cell migration (metastatic activity); type: cell-based, human; details: 100 μM NAC, 16 hours
Experimental: Cell migration assays were performed in Transwells (Corning Inc., 8.0-μm pore size). For migration assay, 2·10^4 cells in serum-free medium were added to the upper wells. Media containing 10% FBS were added to the lower wells. Cells that migrated through the filter after 16 hours were stained with 0.2% crystal violet and counted using the software Image J.
The Transwell test of cell migration has been utilized for this assay and the migration of H460 carcinoma cells has been measured in the presence of two different concentrations of AOX (5 and 10 μM) and compared to the effect of 100 μM N-acetyl cystein (NAC) as a positive control of cytosolic ROS production (FIG. 25).

site IQ = experiment: ROS/H2O2 production, site targeted individually (96-well Amplex Red), 10 mM succinate alone; type: biochemical, rat; details: 0 to 80 μM; effect at concentrations as low as 2.5 μM
Experimental: After freshly isolating mitochondria from rat heart, then measuring protein quantity of the mitochondrial suspension, H2O2 production in response to the exogenous addition of increasing concentrations of AOL, AOX and Oltipraz was measured fluorimetrically with Amplex Red and horseradish peroxidase (HRP).
The two major sites of mitochondrial ROS/H2O2 production were targeted individually using the combination of succinate (energy substrate of respiratory complex 2) and known inhibitors of respiratory chain, namely for site IQ, 10 mM succinate alone (CCCP as positive control) and for site IIIQouter, 10 mM succinate, 4 μM rotenone and 2.5 μM antimycin A (myxothiazol as positive control). These “reaction” solutions were designed to generate maximal rates of ROS/H2O2 production predominantly from a single site within the chain (Quinlan et al. 2013. Redox Biol. 1:304-12).
For measurement, a working solution of 50 μM Amplex red reagent and 20 μg/ml HRP was mixed to the reaction buffer into the corresponding wells of a 96-well plate (Greiner 96 F-bottom), in the absence or presence of increasing concentrations (from 0 to 80 μM) of AOL, AOX or Oltipraz. Addition of mitochondria to a final concentration of 0.125 mg/mL per well initiated the assay. The appropriate total volume per microplate well was 200 μL.
Plates were incubated in the dark at room temperature for 20-25 minutes. A double orbital shaking (100 rpm-3 seconds) was applied before reading the endpoint fluorescence values on a CLARIOstar plate reader (BMG LABTECH GmbH, Germany). In fact, H2O2 reacts with Amplex Red in a 1:1 stoichiometry, yielding the fluorescent compound resorufin that was analyzed using the following optic settings (excitation wavelength at 546-20 nm; emission at 600-40 nm; gain: 750).
Also, an H2O2 standard curve, with concentrations ranging from 0 to 5 μM, was prepared in the experimental buffer that consisted in (in mM): 140 sucrose, 100 KCl, 1 EGTA, 20 MgCl2, 10 KH2PO4, and 1 g/L (w/v) BSA essentially fatty acid free (pH 7.2). […]

NAD(P)H oxidase = experiment: Non-mitochondrial ROS/H2O2 production by NAD(P)H oxidase (Amplex Red); type: biochemical; details: 10 to 100 μM; no mitochondria
Experimental: Rates of ROS/H2O2 production from heart mitochondria were assessed through the oxidation of the colorless, non-fluorescent indicator Amplex Red in the presence of exogenous horseradish peroxidase (HRP, EC 1.11.1.7, Sigma). H2O2 reacts with Amplex Red in a 1:1 stoichiometry, yielding the fluorescent compound resorufin (excitation: 560 nm; emission: 585 nm) which is stable once formed. Fluorescence was measured continuously with a spectro-fluorometer equipped with temperature control and stirring (SAFAS Xenius, Monaco). Isolated mitochondria (0.1 mg/mL) were incubated in the same experimental buffer than previously, supplemented with 15 μM Amplex Red and 10 μg/mL HRP. Glutamate (5 mM)/malate (2.5 mM) together with succinate (5 mM) were used as complex I and complex II substrates, respectively. Experiments were conducted under non-phosphorylating conditions in the presence of 15 μM atractyloside, i.e., under state IV conditions where […]. Afterwards, rotenone (1.5 μM), antimycin A (2 μM), and myxothiazol (0.2 μM) were sequentially added to inhibit the redox centers within the electron transfer chain (FIG. 2), namely sites IQ, IF (with rotenone), IIIQi (with antimycin A) and IIIQO (with myxothiazol). Assay was finally calibrated with known amounts of H2O2 (steps of 300 nM), in the presence of all relevant compounds, including AOL. The control test of the absence of effect of AOL on the Amplex Red assay itself and NAD(P)H oxidase ROS/H2O2 production was carried out in the absence of cardiac mitochondria and the presence of NAD(P)H oxidase (EC 1.6.3.3, 5 mU/mL, Sigma) and NADH (100 μM) solutions.
The specificity of AOL was further tested in vitro using the peroxidase-Amplex Red system utilized for the measurement of ROS/H2O2 by mitochondria, which in fact measures the appearance of H2O2 by the oxidation of Amplex Red to the fluorescent resorufin (see FIG. 4). In the absence of mitochondria and by adding instead a H2O2-producing system to the measuring system, it was possible to test the effect of AOL on this system. This has been carried out by using commercial NAD(P)H oxidase which produces H2O2 in the presence of added NAD(P)H and measuring the reduction of Amplex Red to resorufin (FIG. 4).
Isolated mitochondria (0.1 mg/mL) were incubated in the same experimental buffer than previously, supplemented with 15 μM Amplex Red and 10 μg/mL HRP. Glutamate (5 mM)/malate (2.5 mM) together with succinate (5 mM) were used as complex I and complex II substrates, respectively. Experiments were conducted under non-phosphorylating conditions in the presence of 15 μM atractyloside. Afterwards, rotenone (1.5 μM), antimycin A (2 μM), and myxothiazol (0.2 μM) were sequentially added to inhibit the redox centers within the electron transfer chain (see FIG. 2), namely sites IQ, IF (with rotenone), IIIQi (with antimycin A) and IIIQO (with myxothiazol). Assay was finally calibrated with known amounts of H2O2 (steps of 300 nM), in the presence of all relevant compounds, including AOX. The control test of the absence of effect of AOL, AOX and Oltipraz on the Amplex Red assay itself and NAD(P)H oxidase […] production was carried out in the absence of cardiac mitochondria and the presence of NAD(P)H oxidase (EC 1.6.3.3, 5 mU/mL, Sigma) and NADH (100 μM) solutions.
The mechanism of action of AOX was further tested in vitro using the peroxidase-Amplex Red system utilized for the measurement of ROS/H2O2 by mitochondria, which in fact measures the appearance of H2O2 by the oxidation of Amplex Red to the fluorescent resorufin (FIG. 22). In the absence of mitochondria and by adding instead a H2O2-producing system to the assay, it was possible to test the effect of AOX on this non-mitochondrial superoxide/H2O2 production. This has been carried out by using commercial NAD(P)H oxidase which produces H2O2 in the presence of added NAD(P)H and measuring the reduction of Amplex Red to resorufin. […]

Compound: CC(=O)N[C@@H](CS)C(=O)O [NAC, N-acetyl cysteine]
- metastatic activity (cells crossing the membrane) (H460 carcinoma cells): huge increase in metastatic activity

Compound: Cc1c(-c2cnccn2)ssc1=S [Oltipraz]
- inhibition of ROS production in site IQ (site IQ): only a poor effect
- effect on ROS measurement with NAD(P)H oxidase (NAD(P)H oxidase): constantly decreased the amount of ROS measured
